Laboratory results as given in PubChem BioAssay AID651897 (Broad Institute, 2012).

Molecular target: cruzain (cruzipain), Trypanosoma cruzi
Assay: inhibition of T. cruzi cysteine protease cruzain – biochemical, dry powder, dose response (AID 651897)
Settings: purified recombinant cruzain, Z-Phe-Arg-AMC fluorescence

C[C@H]1CN([C@@H](C)CO)C(=O)c2cccc(NC(=O)c3ccncc3)c2O[C@@H]1CN(C)Cc1ccc(Oc2ccccc2)cc1
IC50: 13.2 µM
